# Laboratory results as given in PMC5066224, “A Novel Resveratrol Based Tubulin Inhibitor Induces Mitotic Arrest and Activates Apoptosis in Cancer Cells” (Scientific Reports, 2016).
# Columns and labels:
# CEM cells [1] = experiment: Intracellular ROS production (H2DCFDA, flow cytometry); type: cell-based, Human; settings: 5 to 60 min
# Method: Intracellular ROS generation in cells was assessed using the oxidation-sensitive fluorescent probe 2,7-dichlorodihydro fluorescein diacetate (H2DCFDA) as previously described. CEM cells were treated with SS28 (5 μM) for 5, 10, 15, 30 and 60 min, harvested, washed and incubated with H2DCFDA (30 min at 37 °C) and then fluorescence intensity was analyzed by flow cytometry. H2O2 was used as the positive control.
# A549 cells [2] = experiment: Immunofluorescence microscopy of spindle microtubule organisation; type: cell-based, human; settings: 24 h
# Method: Immunofluorescence microscopy was performed as previously described. A549 cells were grown on coverslips coated with gelatin (0.1%). […] After 24 h of the treatment nonspecific antibody binding sites were blocked using FBS following which cells were incubated with antitubulin antibody (1:500) at RT. Coverslips were washed in PBS, incubated in biotinylated antimouse secondary antibody (1:500; RT for 1 h) followed by Streptavidin-FITC (1:200). Finally, cells were mounted with DABCO and images were captured using Zeiss Fluorescence microscope and analyzed using Axio vision software. Colchicine treated cells were used as a positive control.
# purified Tubulin = experiment: Fluorescence binding study, double reciprocal plot; settings: double reciprocal plot of fluorescence data, 1:1 binding, 30 °C, ± SEM; read-out: dissociation constant (Kd)
# Method: Fluorescence spectral measurements were performed using Infinite M200 PRO microplate reader (Tecan Group Ltd., Switzerland). Briefly, SS28 (10 μM) was preincubated with increasing concentration of Tubulin (10, 25, 50, 100, 500 and 1000 nM) at 30 °C for 30 min. SS28 Tubulin complex was then scanned for the emission spectra from 345 to 545 nm at 315 nm excitation range. Resulting fluorescence intensity was plotted as the function of wavelength.
# The dissociation constant (Kd) was determined using double reciprocal plot of change in fluorescence of SS28 (1/Δ(F0-F)) as a function of protein concentration by the method of Benesi and Hildebrand assuming a 1:1 binding of SS28 to Tubulin[48]. The spectral measurements were recorded three times and SEM was calculated.
# [3] = tested on: Tubulin polymerisation in CEM cells; experiment: Cell based microtubule assembly (Tubulin polymerisation) assay; parameters: species or system Human; settings: CEM, 2, 5 and 10 μM, 24 h, pellet fraction α-Tubulin immunoblot
# Method: Separation of insoluble polymerized Tubulin from soluble Tubulin dimers was performed as described. In brief, CEM cells (1 × 10^6) were treated with 2, 5 and 10 μM of SS28 for 24 h. Cells were harvested and washed with PBS before adding polymerization lysate buffer containing 20 mM Tris-HCl (pH 6.8), 1 mM MgCl2, 2 mM EGTA, […], 1 mM phenylmethylsulfonyl fluoride, 1 mM orthovanadate and 0.5% NP-40. After centrifugation of the lysates at 15,000 × g for 10 min at 4 °C, the pellets were resuspended in SDS-PAGE loading buffer and dissolved by heating at 95 °C for 10 min. α-Tubulin was then immunoblotted for the pellet fraction containing polymerized microtubules and supernatants containing depolymerised microtubules were equalised and resolved on 8% SDS PAGE.
# CEM cells [4] = experiment: Immunoblotting of cell cycle and apoptotic proteins; type: cell-based, Human; settings: 5 μM, 24, 48 and 72 h
# Method: Cell lysate was prepared after treating with SS28 (5 μM for 24, 48 and 72 h) from CEM and A549 cell lines. In brief, cells were harvested, washed with PBS, resuspended in lysis buffer (RIPA, 25 mM Tris (pH 7.6), 150 mM NaCl, 1% NP-40, 1% sodium deoxycholate and 0.1% SDS) containing protease inhibitors. The protein lysate was cleared by centrifugation (14,000 rpm, for 15 min). The protein concentration in the supernatant was determined using the Bradford’s assay.
# For western blot analysis, ~40 μg proteins were resolved over 8–10% SDS–polyacrylamide gel[60][61][62]. Following gel electrophoresis, proteins were transferred to PVDF membrane (Millipore, USAQ9). The primary antibodies used were against Caspase 3, Caspase 9, p73, p53, KU70, KU80, Cyclin B1, CDK6, PARP1 and Actin (Santa Cruz Biotechnology, USA). The membrane was incubated with appropriate HRP-conjugated secondary antibody (2 h at 4° C). The blots were developed using chemiluminescent solution (Immobilon^TM western, Millipore) and scanned by gel documentation system (LAS 3000, FUJI, Japan). Blots were stripped subsequently as per standard protocols and reprobed with anti β-Actin antibody.
# HEK293T = experiment: Trypan blue dye exclusion cell viability assay; type: cell-based, human; settings: 1-20 μM, compared to most of the cancer cells
# Method: The effect of SS28 on viability of CEM, Reh, Nalm6, SUDHL8, Molt4, A549, HeLa 293T, mouse embryonic fibroblast (MEF) and PBMC was determined by trypan blue dye exclusion assay as described previously. Briefly, cells (0.75 × 10^5 cells/ml) were treated with increasing concentrations of SS28 (1, 5, 10 and 20, μM) for 48 and 72 h. DMSO treated cells were used as the vehicle control. Cells were harvested and subjected to trypan blue assay. Data from a minimum of three independent experiments is presented as a histogram with error bars.
# CEM cells [5] = experiment: Mitochondrial membrane potential (JC-1 staining, flow cytometry); type: cell-based, Human; settings: CEM, 1, 5, 10, 20 μM, 48 h
# Method: Flow cytometric analysis of cells stained with JC-1 was used to measure changes in mitochondrial transmembrane potential as described. Briefly, cells were seeded at a density of 1 × 10^5 cells/ml and treated with SS28 (1, 5, 10 and 20 μM). After 48 h, cells were harvested, washed and incubated with JC-1 (5,5′,6,6 tetrachloro-1,1′,3,3′-tetraethyl benzimidazol carbocyanine iodide; Calbiochem, USA) for 15 min. 2,4-Dinitrophenol-treated cells (2,4-DNP) served as the positive control. Cells were processed and analyzed by flow cytometry using CellQuest pro software with an excitation at 488 nm laser and emission at 530 nm. JC-1 monomers emit at 530 nm and J-aggregates emit at 590 nm.
# A549 cells [6] = experiment: Cell cycle phase distribution by flow cytometry; type: cell-based, human; settings: A549, 5 μM, 6 to 24 h
# Method: Cell cycle analysis by flow cytometry was performed as previously described. Briefly, 75,000 cells/ml (A549) were seeded in 6 well plates and grown in serum free medium for 18 h. After synchronisation, the cells were treated with 5 μM of SS28 (6, 12, 18, 24 and 30 h) and cells were processed as described before. Similarly, CEM cells (75,000 cells/ml) were treated with SS28 (2 μM) and harvested (6, 12, 18, 24 and 30 h) and processed. Following fixation, cells were resuspended in PBS and stained with propidium iodide and evaluated in a flow cytometer (FACS Calibur, Becton Dickinson) using Cell Quest Pro software using excitation 488 nm laser and emission at 560/570 nm. A minimum of 10,000 cells were acquired per sample and histograms were analysed using WinMDI 2.8 software.
compound,measurement,setting,value
"COc1cc(/C=C/c2ccc(C)cc2)cc(OC)c1OC [SS28, (E)-1,2,3-trimethoxy-5-(4-methylstyryl)benzene]",intracellular ROS production,CEM cells [1],did not show generation of ROS
same,cells displaying abnormal spindle organisation,"A549 cells [2]; A549, 5 μM",~ 38%
same,Metaphase arrest (number of cells),"A549 cells [2]; A549, 5 μM, total number of cells 78",30
same,Metaphase arrest (number of cells),"A549 cells [2]; A549, 10 μM, total number of cells 387",123
same,Kd,purified Tubulin,414 ± 110 nM
same,concentration from which Tubulin polymerisation was inhibited,[3],≥ 2 µM
same,Caspase 3,CEM cells [4],showed activation
same,Caspase 9,CEM cells [4],increase in the cleaved Caspase 9 level
same,PARP1,CEM cells [4],activation of PARP1
same,expression level of Cdk6,CEM cells [4],increased at 24 h followed by a decrease at 48 and 72 h
same,expression levels of p53,CEM cells [4],upregulation of p53 at 24 h time point followed by a decrease in the later time points
same,level of Cyclin B1,CEM cells [4],increased at 48 h time point in CEM cells followed by a decrease at 72 h
same,cytotoxicity on normal cell line,HEK293T,limited cytotoxicity
same,mitochondrial membrane potential (JC-1 fluorescence),CEM cells [5],concentration dependant increase in the green fluoresced cells
same,cell cycle distribution,A549 cells [6],significant accumulation of cells at G2/M phase
